Measured values from patent US20200325505A1, “FILAMENTOUS FUNGI CAPABLE OF PRODUCING VERY LONG CHAIN FATTY ACIDS” (UT-Battelle, LLC, priority 2019, published 2020).
Residues, ends and D or L forms follow the SMILES beside them.

Key:
[1] = tested on: Mortierella elongata AG77; assay: Nitrogen source utilisation in Biolog 96-well plates, formazan formation after tetrazolium addition; assay type: cell-based; conditions: for Metabolized: Metabolized = more formazan formation than a control containing no nitrogen source, observed visually at 2 h, 24 h, 148 h; for Nitrogen sources that Mortierella elongata AG77 can metabolize: text summary of Table 4
Procedure: Two 300 mL volumes of growth medium comprising 1 g/L KH2PO4, 1 g/L MgSO4 7H2O, 0.1 g/L CaCl2, 0.02 g/L FeNaEDTA, 0.1 g/L NaCl, and either 1 g/L NH4NO3 or 20 g/L sucrose were prepared. […] Aliquots of 200 μL of carbon-free medium or nitrogen-free medium were pipetted into each well of a set of 96-well plates previously prepared with lyophilized putative carbon or nitrogen sources (Biolog Inc., Hayward, Calif.). Inocula were prepared by perforating a culture of Mortierella elongata AG77 grown on 20 g/L potato dextrose agar with a 3 mm diameter cork borer and separating the surface mycelial mat from the solid growth medium using tweezers. Each well was inoculated with one inoculum. Cultures were incubated at 21° C. for 24 hours to allow metabolic changes to stabilize, and then 100 μL of 3 g/L tetrazolium chloride in water was added to each well.
Conclusions were based on rate and intensity of formazan formation using the 3-(4,5-dimethylthiazol-2-yl)-2,5-diphenyltetrazolium bromide ([…]) assay. “Metabolized” indicates more formazan formation than a control containing no nitrogen source, and “Toxic” indicates less formazan formation than a control containing no nitrogen source, “Metabolized” and “Toxic” assignments are mutually exclusive. In this example, a compound may be “Metabolized” or “Toxic,” but not both.

[2] = tested on: Mortierella elongata AG77; assay: Carbon source utilisation in Biolog 96-well plates, formazan formation after tetrazolium addition; assay type: cell-based; conditions: for Metabolized: Metabolized = more formazan formation than a control containing no carbon source, observed visually at 2 h, 24 h, 148 h; for Carbon sources that Mortierella elongata AG77 can metabolize: summary of Table 3
How it was run: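 Scoring was by eye at 2, 24 and 148 h after tetrazolium chloride went into wells preincubated 24 h at 21 °C. Wells held lyophilised candidate carbon or nitrogen sources in pH 5.5 mineral medium lacking that nutrient, inoculated with 3 mm PDA-grown mycelial plugs. Formazan above the no-carbon control counted as metabolised and below it as toxic.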

[3] = compound as nitrogen source, Toxic = less formazan formation than a control containing no nitrogen source
[4] = compound as carbon source, Toxic = less formazan formation than a control containing no carbon source

Compound	Metabolized ([1]; compound as nitrogen source)	Toxic [1, 3]	Toxic [1]	also measured
CC(O)C(N)=O (racemic) [D,L-Lactamide]	no	no	–	–
CCCCCCC(N)C(=O)O (racemic) [D,L-α-Amino- Caprylic Acid]	no	no	–	–
CCC(N)C(=O)O (racemic) [D,L-α-Amino-N-Butyric Acid]	no	–	no	–
NCCO [2-Aminoethanol]	no	no	–	Metabolized ([2]; compound as carbon source): yes; Toxic [2, 4]: no; Carbon sources that Mortierella elongata AG77 can metabolize [2]: can metabolize
CC(N)=O [Acetamide]	no	no	–	Metabolized ([2]; compound as carbon source): no
Nc1ncnc2nc[nH]c12 [Adenine]	no	–	no	–
Nc1ncnc2c1ncn2[C@@H]1O[C@H](CO)[C@@H](O)[C@H]1O [Adenosine]	no	–	no	Toxic [2]: no; Metabolized ([2]; compound as carbon source): yes; Carbon sources that Mortierella elongata AG77 can metabolize [2]: can metabolize
N=C(N)NCCCCN [Agmatine]	no	no	–	–
C[C@H](N)C(=O)N[C@@H](CC(=O)O)C(=O)O [Ala-Asp] (H-Ala-Asp-OH)	yes	no	–	Nitrogen sources that Mortierella elongata AG77 can metabolize [1]: can metabolize
C[C@H](N)C(=O)N[C@@H](CCC(N)=O)C(=O)O [Ala-Gln] (H-Ala-Gln-OH)	yes	no	–	Nitrogen sources that Mortierella elongata AG77 can metabolize [1]: can metabolize
C[C@H](N)C(=O)N[C@@H](CCC(=O)O)C(=O)O [Ala-Glu] (H-Ala-Glu-OH)	yes	no	–	Nitrogen sources that Mortierella elongata AG77 can metabolize [1]: can metabolize
C[C@H](N)C(=O)N[C@@H](Cc1cnc[nH]1)C(=O)O [Ala-His] (H-Ala-His-OH)	no	no	–	–
CC(C)C[C@H](NC(=O)[C@H](C)N)C(=O)O [Ala-Leu] (H-Ala-Leu-OH)	yes	no	–	Nitrogen sources that Mortierella elongata AG77 can metabolize [1]: can metabolize
C[C@H](N)C(=O)N[C@H](C(=O)O)[C@@H](C)O [Ala-Thr] (H-Ala-Thr-OH)	no	no	–	–
NC(=O)NC1NC(=O)NC1=O (stereo not shown) [Allantoin]	no	–	no	–
O=C1NC(=O)C(=O)C(=O)N1 [Alloxan]	no	no	–	–
N [Ammonia]	no	–	no	–
NC(=O)NC(N)=O [Biuret]	no	no	–	–
Nc1ccn([C@@H]2O[C@H](CO)[C@@H](O)[C@H]2O)c(=O)n1 [Cytidine]	yes	–	no	Nitrogen sources that Mortierella elongata AG77 can metabolize [1]: can metabolize

Compound	Metabolized ([1]; compound as nitrogen source)	Toxic [1, 3]	Toxic [1]	also measured
Nc1cc[nH]c(=O)n1 [Cytosine]	no	–	no	–
NC(=O)C[C@@H](N)C(=O)O [D-Asparagine]	no	–	no	–
N[C@H]1C(O)O[C@H](CO)[C@H](O)[C@@H]1O (stereo partly drawn) [D-Galactosamine]	no	–	no	–
N[C@H](CCC(=O)O)C(=O)O [D-Glutamic Acid]	no	no	–	–
NCCCC[C@@H](N)C(=O)O [D-Lysine]	no	–	no	–
N[C@@H]1C(O)O[C@H](CO)[C@@H](O)[C@@H]1O (stereo partly drawn) [D-Mannosamine]	no	–	no	–
CC(C)[C@@H](N)C(=O)O [D-Valine]	no	–	no	–
CCN [Ethylamine]	no	no	–	–
NCCN [Ethylenediamine]	no	–	no	–
NC=O [Formamide]	no	no	–	–
NCC(=O)N[C@@H](CC(N)=O)C(=O)O [Gly-Asn] (H-Gly-Asn-OH)	no	no	–	–
NCC(=O)N[C@@H](CCC(N)=O)C(=O)O [Gly-Gln] (H-Gly-Gln-OH)	no	no	–	–
CSCC[C@H](NC(=O)CN)C(=O)O [Gly-Met]	no	no	–	–
Nc1nc2nc[nH]c2c(=O)[nH]1 [Guanine]	no	–	yes	–
Nc1nc2c(ncn2[C@@H]2O[C@H](CO)[C@@H](O)[C@H]2O)c(=O)[nH]1 [Guanosine]	no	no	–	–
NCCc1c[nH]cn1 [Histamine]	no	–	no	–
NO [Hydroxylamine]	no	–	–	–
NC(=O)NCCC[C@H](N)C(=O)O [L-Citrulline]	no	no	–	–
N[C@@H](CS)C(=O)O [L-Cysteine]	no	–	–	–

Compound	Metabolized ([1]; compound as nitrogen source)	Toxic [1, 3]	Toxic [1]	also measured
N[C@@H](Cc1c[nH]c2ccccc12)C(=O)O [L-Tryptophan]	no	–	no	–
N[C@@H](Cc1ccc(O)cc1)C(=O)O [L-Tyrosine]	no	no	–	–
CSCC[C@H](N)C(=O)N[C@@H](C)C(=O)O [Met-Ala] (H-Met-Ala-OH)	no	no	–	–
CN [Methylamine]	no	no	–	–
CC(=O)N[C@@H]1C(O)O[C@H](CO)[C@@H](O)[C@@H]1O (stereo partly drawn) [N-Acetyl-D-Mannosamine]	no	no	–	–
CCCCCN [N-Amylamine]	no	–	no	–
CCCCN [N-Butylamine]	no	no	–	–
O=NO [Nitrite]	no	no	–	–
O=C1NC(=O)C(=O)N1 [Parabanic Acid]	yes	no	–	Nitrogen sources that Mortierella elongata AG77 can metabolize [1]: can metabolize
Cc1c[nH]c(=O)[nH]c1=O [Thymine]	no	–	no	–
O=c1cc[nH]c(=O)[nH]1 [Uracil]	no	–	no	–
NC(N)=O [Urea]	no	no	–	–
O=c1[nH]c(=O)c2[nH]c(=O)[nH]c2[nH]1 [Uric Acid]	no	no	–	–
O=c1[nH]c(=O)c2[nH]cnc2[nH]1 [Xanthine]	no	–	no	–
O=c1[nH]c(=O)c2ncn([C@@H]3O[C@H](CO)[C@@H](O)[C@H]3O)c2[nH]1 [Xanthosine]	no	–	no	–
CCC[C@H](N)C(=O)O [α-Amino-N-Valeric Acid]	no	no	–	–
NCCCCCC(=O)O [ε-Amino-N-Caproic Acid]	no	no	–	–
Tween 80	–	–	–	Metabolized ([2]; compound as carbon source): yes; Toxic [2, 4]: no; Carbon sources that Mortierella elongata AG77 can metabolize [2]: can metabolize
